In patent US10815222B2, “Compounds for use in the treatment of kinetoplastid infection” (C.N.C.C.S. S.c.a.r.l. COLLEZIONE NAZIONALE DEI COMPOSTI …, priority 2016, dated 2020):

Each compound was assayed on Bloodstream form of Trypanosoma brucei, strain Lister 427 (assay: Trypanosoma brucei growth inhibition assay (CellTiter-Glo, 24 h)). Details: Trypanosoma brucei; T. Brucei Growth Inibition Assay, class symbols; read-out: T. Brucei GI EC50.
Assay type: cell-based
Method in brief: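 Bloodstream-form T. brucei Lister 427, 1500 parasites per well in supplemented IMDM with 10% FBS, were exposed to compound (DMSO ≤0.25% final) for 24 h at 37 °C. Viability was measured by CellTiter-Glo luminescence.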
With `COc1nc2ccccc2cc1-c1cnc([C@@H]2CN(Cc3ccn(C)n3)CCN2C(=O)Cn2c(C(F)(F)F)nc3ccccc32)[nH]1` [(S)-1-(2-(5-(2-methoxyquinolin-3-yl)-1H-imidazol-2-yl)-4-((1-methyl-1H-pyrazol-3-yl)methyl)piperazin-1-yl)-2-(2-(trifluoromethyl)-1H-benzo[d]imidazol-1-yl)ethan-1-one] the EC50 was < 100 nM.
For `COc1nc2ccccc2cc1-c1cnc([C@@H]2CN(Cc3noc(C)n3)CCN2C(=O)Cn2c(C(F)(F)F)nc3ccccc32)[nH]1` [(S)-1-(2-(5-(2-methoxyquinolin-3-yl)-1H-imidazol-2-yl)-4-((5-methyl-1,2,4-oxadiazol-3-yl)methyl)piperazin-1-yl)-2-(2-(trifluoromethyl)-1H-benzo[d]imidazol-1-yl)ethan-1-one], the EC50 was < 100 nM.
For `COc1nc2ccccc2cc1-c1cnc([C@@H]2CN(Cc3ncco3)CCN2C(=O)Cn2c(C(F)(F)F)nc3ccccc32)[nH]1` [(S)-1-(2-(5-(2-methoxyquinolin-3-yl)-1H-imidazol-2-yl)-4-(oxazol-2-ylmethyl)piperazin-1-yl)-2-(2-(trifluoromethyl)-1H-benzo[d]imidazol-1-yl)ethan-1-one], the EC50 was < 100 nM.
`COc1nc2ccccc2cc1-c1cnc([C@@H]2CN(Cc3cocn3)CCN2C(=O)Cn2c(C(F)(F)F)nc3ccccc32)[nH]1` [(S)-1-(2-(5-(2-methoxyquinolin-3-yl)-1H-imidazol-2-yl)-4-(oxazol-4-ylmethyl)piperazin-1-yl)-2-(2-(trifluoromethyl)-1H-benzo[d]imidazol-1-yl)ethan-1-one] was tested, and the EC50 was < 100 nM.
In the case of `COc1nc2ccccc2cc1-c1cnc([C@@H]2CN(C3COC3)CCN2C(=O)Cn2c(C(F)(F)F)nc3ccccc32)[nH]1` [(S)-1-(2-(5-(2-methoxyquinolin-3-yl)-1H-imidazol-2-yl)-4-(oxetan-3-yl)piperazin-1-yl)-2-(2-(trifluoromethyl)-1H-benzo[d]imidazol-1-yl)ethan-1-one], the EC50 is reported as < 100 nM.
With `COc1nc2ccccc2cc1-c1cnc([C@@H]2CN(CC3COC3)CCN2C(=O)Cn2c(C(F)(F)F)nc3ccccc32)[nH]1` [(S)-1-(2-(5-(2-methoxyquinolin-3-yl)-1H-imidazol-2-yl)-4-(oxetan-3-ylmethyl)piperazin-1-yl)-2-(2-(trifluoromethyl)-1H-benzo[d]imidazol-1-yl)ethan-1-one] the EC50 was < 100 nM.
In the case of `COc1nc2ccccc2cc1-c1cnc([C@@H]2CN(Cc3cnccn3)CCN2C(=O)Cn2c(C(F)(F)F)nc3ccccc32)[nH]1` [(S)-1-(2-(5-(2-methoxyquinolin-3-yl)-1H-imidazol-2-yl)-4-(pyrazin-2-ylmethyl)piperazin-1-yl)-2-(2-(trifluoromethyl)-1H-benzo[d]imidazol-1-yl)ethan-1-one], the EC50 is reported as < 100 nM.
For `COc1nc2ccccc2cc1-c1cnc([C@@H]2CN(Cc3ccccn3)CCN2C(=O)Cn2c(C(F)(F)F)nc3ccccc32)[nH]1` [(S)-1-(2-(5-(2-methoxyquinolin-3-yl)-1H-imidazol-2-yl)-4-(pyridin-2-ylmethyl)piperazin-1-yl)-2-(2-(trifluoromethyl)-1H-benzo[d]imidazol-1-yl)ethan-1-one], the EC50 was < 100 nM.
With `COc1nc2ccccc2cc1-c1cnc([C@@H]2CN(Cc3cccnc3)CCN2C(=O)Cn2c(C(F)(F)F)nc3ccccc32)[nH]1` [(S)-1-(2-(5-(2-methoxyquinolin-3-yl)-1H-imidazol-2-yl)-4-(pyridin-3-ylmethyl)piperazin-1-yl)-2-(2-(trifluoromethyl)-1H-benzo[d]imidazol-1-yl)ethan-1-one] the EC50 was < 100 nM.
`COc1nc2ccccc2cc1-c1cnc([C@@H]2CN(Cc3cncnc3)CCN2C(=O)Cn2c(C(F)(F)F)nc3ccccc32)[nH]1` [(S)-1-(2-(5-(2-methoxyquinolin-3-yl)-1H-imidazol-2-yl)-4-(pyrimidin-5-ylmethyl)piperazin-1-yl)-2-(2-(trifluoromethyl)-1H-benzo[d]imidazol-1-yl)ethan-1-one] was tested, and the EC50 was < 100 nM.
`COc1nc2ccccc2cc1-c1cnc([C@@H]2CN(C3CCOCC3)CCN2C(=O)Cn2c(C(F)(F)F)nc3ccccc32)[nH]1` [(S)-1-(2-(5-(2-methoxyquinolin-3-yl)-1H-imidazol-2-yl)-4-(tetrahydro-2H-pyran-4-yl)piperazin-1-yl)-2-(2-(trifluoromethyl)-1H-benzo[d]imidazol-1-yl)ethan-1-one] was tested, and the EC50 was < 100 nM.
In the case of `COc1nc2ccccc2cc1-c1cnc([C@@H]2CN(Cc3nccs3)CCN2C(=O)Cn2c(C(F)(F)F)nc3ccccc32)[nH]1` [(S)-1-(2-(5-(2-methoxyquinolin-3-yl)-1H-imidazol-2-yl)-4-(thiazol-2-ylmethyl)piperazin-1-yl)-2-(2-(trifluoromethyl)-1H-benzo[d]imidazol-1-yl)ethan-1-one], the EC50 is reported as < 100 nM.
For `COc1nc2ccccc2cc1-c1cnc([C@@H]2CN(Cc3cscn3)CCN2C(=O)Cn2c(C(F)(F)F)nc3ccccc32)[nH]1` [(S)-1-(2-(5-(2-methoxyquinolin-3-yl)-1H-imidazol-2-yl)-4-(thiazol-4-ylmethyl)piperazin-1-yl)-2-(2-(trifluoromethyl)-1H-benzo[d]imidazol-1-yl)ethan-1-one], the EC50 was < 100 nM.
In the case of `COc1nc2ccccc2cc1-c1cnc([C@@H]2CN(C3CCS(=O)(=O)CC3)CCN2C(=O)Cn2c(C(F)(F)F)nc3ccccc32)[nH]1` [(S)-1-(4-(1,1-dioxidotetrahydro-2H-thiopyran-4-yl)-2-(5-(2-methoxyquinolin-3-yl)-1H-imidazol-2-yl)piperazin-1-yl)-2-(2-(trifluoromethyl)-1H-benzo[d]imidazol-1-yl)ethan-1-one], the EC50 is reported as < 100 nM.
For `COc1ccc2nc(C(F)(F)F)n(CC(=O)N3CCN(C4CCS(=O)(=O)CC4)C[C@H]3c3ncc(-c4cc5ccccc5nc4OC)[nH]3)c2c1` [(S)-1-(4-(1,1-dioxidotetrahydro-2H-thiopyran-4-yl)-2-(5-(2-methoxyquinolin-3-yl)-1H-imidazol-2-yl)piperazin-1-yl)-2-(6-methoxy-2-(trifluoromethyl)-1H-benzo[d]imidazol-1-yl)ethan-1-one], the EC50 was < 100 nM.
For `COc1nc2ccccc2cc1-c1cnc([C@@H]2CN(C3CCN(C(C)=O)CC3)CCN2C(=O)Cn2c(C(F)(F)F)nc3ccccc32)[nH]1` [(S)-1-(4-(1-acetylpiperidin-4-yl)-2-(5-(2-methoxyquinolin-3-yl)-1H-imidazol-2-yl)piperazin-1-yl)-2-(2-(trifluoromethyl)-1H-benzo[d]imidazol-1-yl)ethan-1-one], the EC50 was < 100 nM.
For `COc1ccc2nc(C(F)(F)F)n(CC(=O)N3CCN(CCn4cccn4)C[C@H]3c3ncc(-c4cc5ccccc5nc4OC)[nH]3)c2c1` [(S)-1-(4-(2-(1H-pyrazol-1-yl)ethyl)-2-(5-(2-methoxyquinolin-3-yl)-1H-imidazol-2-yl)piperazin-1-yl)-2-(6-methoxy-2-(trifluoromethyl)-1H-benzo[d]imidazol-1-yl)ethan-1-one], the EC50 was < 100 nM.
With `COc1ccc2nc(C(F)(F)F)n(CC(=O)N3CCN(CCc4cnoc4)C[C@H]3c3ncc(-c4cc5ccccc5nc4OC)[nH]3)c2c1` [(S)-1-(4-(2-(isoxazol-4-yl)ethyl)-2-(5-(2-methoxyquinolin-3-yl)-1H-imidazol-2-yl)piperazin-1-yl)-2-(6-methoxy-2-(trifluoromethyl)-1H-benzo[d]imidazol-1-yl)ethan-1-one] the EC50 was < 100 nM.
For `COc1nc2ccccc2cc1-c1cnc([C@@H]2CN(C3CCC(F)(F)CC3)CCN2C(=O)Cn2c(C(F)(F)F)nc3ccccc32)[nH]1` [(S)-1-(4-(4,4-difluorocyclohexyl)-2-(5-(2-methoxyquinolin-3-yl)-1H-imidazol-2-yl)piperazin-1-yl)-2-(2-(trifluoromethyl)-1H-benzo[d]imidazol-1-yl)ethan-1-one], the EC50 was < 100 nM.
In the case of `COc1nc2ccccc2cc1-c1cnc([C@@H]2CN(Cc3cncc(F)c3)CCN2C(=O)Cn2c(C(F)(F)F)nc3ccccc32)[nH]1` [(S)-1-(4-((5-fluoropyridin-3-yl)methyl)-2-(5-(2-methoxyquinolin-3-yl)-1H-imidazol-2-yl)piperazin-1-yl)-2-(2-(trifluoromethyl)-1H-benzo[d]imidazol-1-yl)ethan-1-one], the EC50 is reported as < 100 nM.
`COc1nc2ccccc2cc1-c1cnc([C@@H]2CN(Cc3ccon3)CCN2C(=O)Cn2c(C(F)(F)F)nc3ccccc32)[nH]1` [(S)-1-(4-(isoxazol-3-ylmethyl)-2-(5-(2-methoxyquinolin-3-yl)-1H-imidazol-2-yl)piperazin-1-yl)-2-(2-(trifluoromethyl)-1H-benzo[d]imidazol-1-yl)ethan-1-one] was tested, and the EC50 was < 100 nM.
In the case of `COc1nc2ccccc2cc1-c1cnc([C@@H]2CN(Cc3ccccc3)CCN2C(=O)Cn2c(C(F)(F)F)nc3ccccc32)[nH]1` [(S)-1-(4-benzyl-2-(5-(2-methoxyquinolin-3-yl)-1H-imidazol-2-yl)piperazin-1-yl)-2-(2-(trifluoromethyl)-1H-benzo[d]imidazol-1-yl)ethan-1-one], the EC50 is reported as < 100 nM.
For `COc1ccc2nc(C(F)(F)F)n(CC(=O)N3CCN(CCc4csc(C)n4)C[C@H]3c3ncc(-c4cc5ccccc5nc4OC)[nH]3)c2c1` [(S)-2-(6-methoxy-2-(trifluoromethyl)-1H-benzo[d]imidazol-1-yl)-1-(2-(5-(2-methoxyquinolin-3-yl)-1H-imidazol-2-yl)-4-(2-(2-methylthiazol-4-yl)ethyl)piperazin-1-yl)ethan-1-one], the EC50 was < 100 nM.
For `COc1ccc2nc(C(F)(F)F)n(CC(=O)N3CCN(CCc4ccccn4)C[C@H]3c3ncc(-c4cc5ccccc5nc4OC)[nH]3)c2c1` [(S)-2-(6-methoxy-2-(trifluoromethyl)-1H-benzo[d]imidazol-1-yl)-1-(2-(5-(2-methoxyquinolin-3-yl)-1H-imidazol-2-yl)-4-(2-(pyridin-2-yl)ethyl)piperazin-1-yl)ethan-1-one], the EC50 was < 100 nM.
Compound `COc1ccc2nc(C(F)(F)F)n(CC(=O)N3CCN(Cc4ncnn4C)C[C@H]3c3ncc(-c4cc5ccccc5nc4OC)[nH]3)c2c1` [(S)-2-(6-methoxy-2-(trifluoromethyl)-1H-benzo[d]imidazol-1-yl)-1-(2-(5-(2-methoxyquinolin-3-yl)-1H-imidazol-2-yl)-4-((1-methyl-1H-1,2,4-triazol-5-yl)methyl)piperazin-1-yl)ethan-1-one] has an EC50 of 100 to 500 nM.
